pEC50: −log10 of the molar value.

The assay concerns HBV. Description: HBV inhibition assay in HepG2.2.15 cells (extracellular HBV DNA by qPCR). It counts as cell-based. The note with it: Hepatitis B virus, 120 h, extracellular HBV DNA in culture supernatant by qPCR, five days after compound treatment. The text has this: Example 19: HBV Inhibition Assays
Cell Line and Culture Conditions:
HepG2.2.15 is a stably-transfected cell line containing the HBV genome. It is derived from the hepatoblastoma cell line Hep G2 (American Type Culture Collection, ATCC® HB-8065™) by the published procedures described in reference: MA Selles et al. Proc. Natl. Acad. Sci. USA 1987, 84, 1005-1009. The cell line was maintained in Dulbecco's modified Eagle's medium and nutrient mixture F-12 (DMEM/F-12, Gibco, Cat. #: 11320-033) supplemented with 10% fetal bovine serum (Gibco, Cat. #: 10099-141), 100 U/mL penicillin, 100 μg/mL streptomycin (Gibco, Cat. #: 15140-122), and 0.3 mg/mL of G418 Sulfate (Gibco, Cat. #: 10131-027).
Anti-HBV Activity In Vitro:
HepG2.2.15 cells were seeded into 96-well plates at a density of 3×10^4 cells per well in culture media of 100 μL DMEM/F-12 supplemented with 2.5% fetal bovine serum, 100 U/mL penicillin, 100 μg/mL streptomycin and cultured overnight at 37° C. The test compounds were serially half-log diluted in DMSO, then diluted 100 times in culture media. 100 μL culture media containing diluted compounds were added into the plates to reach 0.5% final concentration of DMSO in every well. Five days after compound treatment, culture supernatant was collected for further analysis.
For quantitative PCR detection of extracellular HBV DNA, culture supernatant was processed by 500 μg/mL Proteinase K (Sigma, Cat. #: P2308) digestion at 50° C. for 1 hour. After heat inactivation of the enzyme at 95° C. for 15 minutes, the samples were subjected to HBV DNA quantification by qPCR. The effective compound concentration at which HBV replication was inhibited by 50% (EC50) was determined.
Broadly, the pEC50 is the EC50 on a negative log10 scale, so that one unit is a factor of ten. Low readings indicate a large EC50, high ones a small EC50. As to `O=C(Nc1cc(F)c(F)c(F)c1)C1CCn2ncc(N3CCCC3=O)c2C1` (centres unmarked) [Example 1, 3-(2-oxopyrrolidin-1-yl)-N-(3,4,5-trifluorophenyl)-4,5,6,7-tetrahydropyrazolo[1,5-a]pyridine-5-carboxamide], the pEC50 was 6.43.
Next, `CC1(C)CN(c2cnn3c2CC(C(=O)Nc2cc(F)c(F)c(F)c2)CC3)C(=O)O1` (centres unmarked) [Example 2, 3-(5,5-dimethyl-2-oxo-oxazolidin-3-yl)-N-(3,4,5-trifluorophenyl)-4,5,6,7-tetrahydropyrazolo[1,5-a]pyridine-5-carboxamide]: 6.52; `O=C(Nc1cc(F)c(F)c(F)c1)C1CCn2ncc(-c3ccc(F)cc3F)c2C1` (centres unmarked) [Example 3, 3-(2,4-difluorophenyl)-N-(3,4,5-trifluorophenyl)-4,5,6,7-tetrahydropyrazolo[1,5-a]pyridine-5-carboxamide]: 6.80; `O=C(Nc1cc(F)c(F)c(F)c1)C1CCn2ncc(C3CCCC3)c2C1` (centres unmarked) [Example 4, 3-cyclopentyl-N-(3,4,5-trifluorophenyl)-4,5,6,7-tetrahydropyrazolo[1,5-a]pyridine-5-carboxamide]: 6.82.
Then `O=C(Nc1cc(F)c(F)c(F)c1)C1CCn2ncc(N3CCCS3(=O)=O)c2C1` (centres unmarked) [Example 5, 3-(1,1-dioxo-1,2-thiazolidin-2-yl)-N-(3,4,5-trifluorophenyl)-4,5,6,7-tetrahydropyrazolo[1,5-a]pyridine-5-carboxamide], with 7.41; and `O=C(Nc1cc(F)c(F)c(F)c1)C1CCn2ncc(N3CCN(Cc4ccccc4)S3(=O)=O)c2C1` (centres unmarked) [Example 6, 3-(5-benzyl-1,1-dioxo-1,2,5-thiadiazolidin-2-yl)-N-(3,4,5-trifluorophenyl)-4,5,6,7-tetrahydropyrazolo[1,5-a]pyridine-5-carboxamide], with 6.62; and `O=C(Nc1cc(F)c(F)c(F)c1)C1CCn2ncc(N3CCNS3(=O)=O)c2C1` (centres unmarked) [Example 7, 3-(1,1-dioxo-1,2,5-thiadiazolidin-2-yl)-N-(3,4,5-trifluorophenyl)-4,5,6,7-tetrahydropyrazolo[1,5-a]pyridine-5-carboxamide], with 6.96.
In turn, `N#CC1CC(=O)N(c2cnn3c2CC(C(=O)Nc2cc(F)c(F)c(F)c2)CC3)C1` (centres unmarked) [Example 8, 3-(4-cyano-2-oxo-pyrrolidin-1-yl)-N-(3,4,5-trifluorophenyl)-4,5,6,7-tetrahydropyrazolo[1,5-a]pyridine-5-carboxamide] showed a pEC50 of 6.72.
Compound `O=C(Nc1cc(F)c(F)c(F)c1)C1CCn2ncc(N3CCOCC3=O)c2C1` (centres unmarked) [Example 9, 3-(3-oxomorpholin-4-yl)-N-(3,4,5-trifluorophenyl)-4,5,6,7-tetrahydropyrazolo[1,5-a]pyridine-5-carboxamide] gave a pEC50 of 6.08.
Next, `Cc1noc(C2CC(=O)N(c3cnn4c3CC(C(=O)Nc3cc(F)c(F)c(F)c3)CC4)C2)n1` (centres unmarked) [Example 10, 3-[4-(3-methyl-1,2,4-oxadiazol-5-yl)-2-oxo-pyrrolidin-1-yl]-N-(3,4,5-trifluorophenyl)-4,5,6,7-tetrahydropyrazolo[1,5-a]pyridine-5-carboxamide]: 6.48; `O=C(Nc1ccsc1)C1CCn2ncc(-c3ccc(F)cc3F)c2C1` (centres unmarked) [Example 11, 3-(2,4-difluorophenyl)-N-(3-thienyl)-4,5,6,7-tetrahydropyrazolo[1,5-a]pyridine-5-carboxamide]: 6.23; `O=C(Nc1ccc(F)c(C(F)(F)F)c1)C1CCn2ncc(-c3ccc(F)cc3F)c2C1` (centres unmarked) [Example 12, 3-(2,4-difluorophenyl)-N-[4-fluoro-3-(trifluoromethyl)phenyl]-4,5,6,7-tetrahydropyrazolo[1,5-a]pyridine-5-carboxamide]: 6.06.
Then `N#Cc1cc(NC(=O)C2CCn3ncc(-c4ccc(F)cc4F)c3C2)ccc1F` (centres unmarked) [Example 13, N-(3-cyano-4-fluoro-phenyl)-3-(2,4-difluorophenyl)-4,5,6,7-tetrahydropyrazolo[1,5-a]pyridine-5-carboxamide], with 6.68; and `Cc1cc(NC(=O)C2CCn3ncc(-c4ccc(F)cc4F)c3C2)ccc1F` (centres unmarked) [Example 14, 3-(2,4-difluorophenyl)-N-(4-fluoro-3-methyl-phenyl)-4,5,7-tetrahydropyrazolo[1,5-a]pyridine-5-carboxamide], with 7.05; and `O=C(Nc1cc(F)nc(F)c1)C1CCn2ncc(-c3ccc(F)cc3F)c2C1` (centres unmarked) [Example 15, 3-(2,4-difluorophenyl)-N-(2,6-difluoro-4-pyridyl)-4,5,6,7-tetrahydropyrazolo[1,5-a]pyridine-5-carboxamide], with 6.35.
Next, `O=C(Nc1ccnc(F)c1)C1CCn2ncc(-c3ccc(F)cc3F)c2C1` (centres unmarked) [Example 16, 3-(2,4-difluorophenyl)-N-(2-fluoro-4-pyridyl)-4,5,6,7-tetrahydropyrazolo[1,5-a]pyridine-5-carboxamide]: 6.46; `Cc1nc(C2CC(=O)N(c3cnn4c3CC(C(=O)Nc3cc(F)c(F)c(F)c3)CC4)C2)no1` (centres unmarked) [Example 18, 3-[4-(5-methyl-1,2,4-oxadiazol-3-yl)-2-oxo-pyrrolidin-1-yl]-N-(3,4,5-trifluorophenyl)-4,5,6,7-tetrahydropyrazolo[1,5-a]pyridine-5-carboxamide]: 6.41.

The values are drawn from US10781206B2, “Tetrahydropyrazolopyridine compounds for the treatment of infectious diseases” (Hoffmann-La Roche Inc., priority 2017, dated 2020).
